The source of these data is US12264163B2, “Compounds and methods for treating fibrotic pathologies” (Mayo Foundation for Medical Education and Research, priority 2019, dated 2025).

The subject of assay [1] is YAP/TAZ. Put plainly: YAP/TAZ nuclear localization in IPF patient-derived lung fibroblasts treated with dopaminergic agonists. The class given is cell-based, human. The note with it: 10 μM, 2 hours. How it is done:
IPF patient-derived lung fibroblasts cells treated 2 hours prior to fixation with diverse dopaminergic agonists (10 μM). N=4 different patient samples. % nuclear localization of YAP/TAZ was determined using automated imaging software. Scale bar represents 100 μm.
(§1) Media was then exchanged for the indicated conditions for each experiment. […] Cells or tissue sections were incubated overnight with mouse monoclonal antibody against αSMA (Sigma-Aldrich F3777), and/or a rabbit monoclonal antibody against YAP/TAZ (Cell Signaling D24E4) diluted 1:200 in PBS with 1% BSA. Cells were then washed and exposed to flourescence-conjugated secondary antibodies (Invitrogen) diluted 1:1000 and DAPI (Thermo Fisher Scientific). Images were taken with a Cytation5 (BioTek) microscope. For scoring αSMA positive cells (FIG. 12), an observer blinded to the treatment conditions counted αSMA-positive cells using a visual threshold for bright fibrous staining; a minimum of 200 cells was counted for each condition. YAP/TAZ localization was quantified (FIGS. 6-10, 24-26, and 29-30) using Gen5 (Biotek) software. Images were taken at 4× magnification of both DAPI and YAP/TAZ staining. […] Quantification of double positive (YAP/TAZ and αSMA) cells from lung tissue sections (FIG. 17-21) was performed similarly; however separate thresholds were established for both YAP/TAZ and αSMA. A minimum of 4000 cells was quantified for each mouse.

The next assay deals with αSMA. Put plainly: αSMA intensity (fibroblast activation) in IPF patient-derived lung fibroblasts + TGFβ, dopaminergic agonist library. The assay is classed as cell-based, human. As to conditions: 1 μM + TGFβ; for αSMA intensity (% of DMSO control): 72 hours. The procedure:
as §1

Assay [2] concerns YAP/TAZ. Put plainly: YAP/TAZ nuclear localization in IMR-90 and other fibroblasts / mesenchymal cells (immunofluorescence). The class given is cell-based, human. The procedure:
Selective agonists of dopamine receptor D1 with varying efficacy inhibit YAP/TAZ nuclear localization; this effect can be overcome by treatment with a DRD1 receptor antagonist (SCH 39166, 3 μM), (Dihydrexidine, 10 μM). IMR-90 cells treated 2 hours prior to fixation. N=4 (****p<0.0001 vs. 0.10% DMSO vehicle control). Scale bar represents 100 μm.
In each case DHX treatment (10 μM) can reverse this effect on YAP/TAZ. IMR-90 cells plated densely onto plastic cell culture plates for 24 hours in media containing 0.1% FBS, treated for 2 hours prior to fixation. N=4 (****p<0.0001 vs. 0.1% DMSO vehicle control), (++++p<0.0001 vs. the respective stimulated agonist ET-1, LPA, or 5-HT). Scale bar represents 100 μm.
Mesenchymal cells derived from lung (IMR-90 and IPF-FBs) hepatic stellate cells (HSC), human adult cardiac fibroblasts, (HACF) and human dermal fibroblasts (HDF) were plated densely (Confluent) or sparsely (Control and all remaining conditions) onto plastic cell culture plates for 24 hours in media containing 0.10% FBS, treated for 2 hours with Rho kinase inhibitor Y27632, adenylate cyclase activator forskolin and DHX. N=4, Cells that were positive for nuclear YAP/TAZ were quantified by automated image analysis.
Immunofluorescence Microscopy: Cells were plated into 96 well plates (Corning 3603) in their specific growth media and allowed to attach (8 hours). Media was then exchanged for the indicated conditions for each experiment. Cells were fixed in 3.7% formalin (Sigma-Aldrich), permeabilized in 0.25% Triton X-100 (Sigma-Aldrich) and then blocked with 1% BSA for 1 h. Cells or tissue sections were incubated overnight with mouse monoclonal antibody against αSMA (Sigma-Aldrich F3777), and/or a rabbit monoclonal antibody against YAP/TAZ (Cell Signaling D24E4) diluted 1:200 in PBS with 1% BSA. Cells were then washed and exposed to flourescence-conjugated secondary antibodies (Invitrogen) diluted 1:1000 and DAPI (Thermo Fisher Scientific). Images were taken with a Cytation5 (BioTek) microscope. For scoring αSMA positive cells (FIG. 12), an observer blinded to the treatment conditions counted αSMA-positive cells using a visual threshold for bright fibrous staining; a minimum of 200 cells was counted for each condition. YAP/TAZ localization was quantified (FIGS. 6-10, 24-26, and 29-30) using Gen5 (Biotek) software. Images were taken at 4× magnification of both DAPI and YAP/TAZ staining. […] Quantification of double positive (YAP/TAZ and αSMA) cells from lung tissue sections (FIG. 17-21) was performed similarly; however separate thresholds were established for both YAP/TAZ and αSMA. A minimum of 4000 cells was quantified for each mouse.

For the next assay, the system named is D1 receptor. As to conditions: cited from earlier work.

Structures can show the parent of a compound that is named as a salt.

With `CCCN(CCC)CCc1ccc(O)c(O)c1` [Dipropyldopamine•HBr, Dipropyldopamine], the “Nuclear localization (% of total cells)” value in the assay on YAP/TAZ [1] (IPF-1 patient fibroblasts) is 69.18 % of total cells; with YAP/TAZ [1] (IPF-2 patient fibroblasts), 74.36 % of total cells; in the assay on YAP/TAZ [1] (IPF-3 patient fibroblasts) it was 65.5 % of total cells; in the assay on YAP/TAZ [1] (IPF-4 patient fibroblasts), 51.82 % of total cells. Moreover, the “αSMA intensity (% of DMSO control)” value is given as 48.72 % of DMSO control in the assay on αSMA (IPF-1 patient fibroblasts), 28.11 % of DMSO control in the assay on αSMA (IPF-2 patient fibroblasts), 40.34 % of DMSO control in the assay on αSMA (IPF-3 patient fibroblasts) and 25.86 % of DMSO control in the assay with αSMA (IPF-4 patient fibroblasts).
In the case of `CCCN1CCC[C@@H]2Cc3nc(N)ncc3C[C@H]21.Cl.Cl` [LY-163,502•2HCl, LY-163,502], the “Nuclear localization (% of total cells)” value is recorded as 73.37 % of total cells with YAP/TAZ [1] (IPF-1 patient fibroblasts), 60.97 % of total cells in the assay on YAP/TAZ [1] (IPF-2 patient fibroblasts), 59.43 % of total cells with YAP/TAZ [1] (IPF-3 patient fibroblasts) and 66.49 % of total cells in the assay with YAP/TAZ [1] (IPF-4 patient fibroblasts). Besides, the “αSMA intensity (% of DMSO control)” value is given as 88.99 % of DMSO control with αSMA (IPF-1 patient fibroblasts), 72.86 % of DMSO control with αSMA (IPF-2 patient fibroblasts), 75.3 % of DMSO control in the assay on αSMA (IPF-3 patient fibroblasts) and 86.7894 % of DMSO control in the assay on αSMA (IPF-4 patient fibroblasts).
In the case of `Cc1cccc(C(=O)NCN2CCN(c3ccccc3C#N)CC2)c1.O=C(O)/C=C\C(=O)O` [PD 168077 maleate, PD 168077], the “Nuclear localization (% of total cells)” value in the assay on YAP/TAZ [1] (IPF-1 patient fibroblasts) is on record as 67.08 % of total cells; in the assay with YAP/TAZ [1] (IPF-2 patient fibroblasts), 42.44 % of total cells; in the assay with YAP/TAZ [1] (IPF-3 patient fibroblasts), 63.68 % of total cells; in the assay on YAP/TAZ [1] (IPF-4 patient fibroblasts), 68.4 % of total cells. For the same compound, the “αSMA intensity (% of DMSO control)” value is 75.27 % of DMSO control in the assay with αSMA (IPF-1 patient fibroblasts), 56.15 % of DMSO control in the assay with αSMA (IPF-2 patient fibroblasts), 75.77 % of DMSO control in the assay with αSMA (IPF-3 patient fibroblasts) and 66.5 % of DMSO control with αSMA (IPF-4 patient fibroblasts).
For `CCCCC[C@H](O)/C=C/[C@H]1[C@H](O)CC(=O)[C@@H]1C/C=C\CCCC(=O)O` [PGE2, prostaglandin E2], the “potency of inhibition of YAP/TAZ nuclear localization, normal vs IPF lung fibroblasts” value in the assay with YAP/TAZ [2] (normal lung fibroblasts vs those from a patient with IPF) is “reduced potency”.
Consider `Br.C=CCN1CCc2c(cc(O)c(O)c2Br)[C@@H](c2ccccc2)C1` [R(+)-6-BROMO-APB•HBr, R(+)-6-BROMO-APB], for which the “Nuclear localization (% of total cells)” value with YAP/TAZ [1] (IPF-1 patient fibroblasts) is listed as 28.37 % of total cells; in the assay with YAP/TAZ [1] (IPF-2 patient fibroblasts) it was 38 % of total cells; with YAP/TAZ [1] (IPF-3 patient fibroblasts), 36 % of total cells; in the assay on YAP/TAZ [1] (IPF-4 patient fibroblasts), 25.65 % of total cells. The “αSMA intensity (% of DMSO control)” value with αSMA (IPF-1 patient fibroblasts) is listed as 11.25 % of DMSO control; in the assay on αSMA (IPF-2 patient fibroblasts), 2.507 % of DMSO control; in the assay on αSMA (IPF-3 patient fibroblasts), 0.8506 % of DMSO control; in the assay on αSMA (IPF-4 patient fibroblasts) it was 22.82 % of DMSO control.
For the compound `Br.CCCN1CCc2cc(O)cc3c2[C@H]1Cc1ccc(O)c(O)c1-3` [R(−)-2,10,11-Trihydroxy-N-propyl-noraporphine], the “Nuclear localization (% of total cells)” value in the assay on YAP/TAZ [1] (IPF-1 patient fibroblasts) is recorded as 32.87 % of total cells; in the assay with YAP/TAZ [1] (IPF-2 patient fibroblasts), 35.25 % of total cells; in the assay with YAP/TAZ [1] (IPF-3 patient fibroblasts) it was 37.7 % of total cells; with YAP/TAZ [1] (IPF-4 patient fibroblasts), 25.36 % of total cells. In addition, the “αSMA intensity (% of DMSO control)” value with αSMA (IPF-1 patient fibroblasts) is 4.895 % of DMSO control; in the assay with αSMA (IPF-2 patient fibroblasts), 8.436 % of DMSO control; in the assay with αSMA (IPF-3 patient fibroblasts), 2.988 % of DMSO control; with αSMA (IPF-4 patient fibroblasts), 25.61 % of DMSO control.
Consider `COc1ccc2c(c1O)-c1cc(O)cc3c1[C@@H](C2)N(C)CC3.Cl` [R(−)-2,11-dihydroxy-10-methoxyapomorphine], for which the “Nuclear localization (% of total cells)” value was 85.18 % of total cells in the assay on YAP/TAZ [1] (IPF-1 patient fibroblasts), 74.67 % of total cells in the assay on YAP/TAZ [1] (IPF-2 patient fibroblasts), 80.73 % of total cells with YAP/TAZ [1] (IPF-3 patient fibroblasts) and 80.45 % of total cells with YAP/TAZ [1] (IPF-4 patient fibroblasts). The “αSMA intensity (% of DMSO control)” value is given as 91.84 % of DMSO control in the assay with αSMA (IPF-1 patient fibroblasts), 92.8 % of DMSO control with αSMA (IPF-2 patient fibroblasts), 81.85 % of DMSO control in the assay on αSMA (IPF-3 patient fibroblasts) and 85.61 % of DMSO control with αSMA (IPF-4 patient fibroblasts).
`CCCN(CCC)CCc1cccc2c1CC(=O)N2` [Ropinirole HCl, Ropinirole]: the “Nuclear localization (% of total cells)” value with YAP/TAZ [1] (IPF-1 patient fibroblasts) is on record as 69.6036 % of total cells; with YAP/TAZ [1] (IPF-2 patient fibroblasts), 58.68 % of total cells; in the assay on YAP/TAZ [1] (IPF-3 patient fibroblasts) it was 64.66 % of total cells; with YAP/TAZ [1] (IPF-4 patient fibroblasts) it was 65.7 % of total cells. Further, in the assay on αSMA (Homo sapiens, SMA, 72 h, IPF-3 patient fibroblasts, read-out: αSMA intensity (% of DMSO control)), the activity at 1 µM is 79%.
For `Oc1cc2c(c(Cl)c1O)CCNCC2c1ccccc1` (stereo not shown) [SKF-81297], the YAP/TAZ nuclear localization result in the assay on YAP/TAZ [2] (fibroblasts / mesenchymal cells on plastic, 2 hours) is “reduced nuclear localization of YAP/TAZ”.
`Oc1ccc2c(c1O)Cc1cccc3c1[C@H]2CNC3` [dinapsoline]: the “efficacy at elevating cAMP (D1 receptor)” value in the assay on D1 receptor is given as “full magnitude cAMP response”.
For `Oc1ccc2c(c1O)Oc1cccc3c1C2CNC3` (stereo not shown) [dinoxyline], the “efficacy at elevating cAMP (D1 receptor)” value in the assay on D1 receptor is listed as “full magnitude cAMP response”.
With “R(−)-2,10,11-Trihydroxyaporphine [R(−)-2,10,11-Trihydroxyaporphine•HBr]”, the “Nuclear localization (% of total cells)” value with YAP/TAZ [1] (IPF-1 patient fibroblasts) is 13.71 % of total cells; in the assay with YAP/TAZ [1] (IPF-2 patient fibroblasts), 22.15 % of total cells; with YAP/TAZ [1] (IPF-3 patient fibroblasts), 24.15 % of total cells; in the assay on YAP/TAZ [1] (IPF-4 patient fibroblasts) it was 17.75 % of total cells. For the same compound, the “αSMA intensity (% of DMSO control)” value with αSMA (IPF-1 patient fibroblasts) is 2.888 % of DMSO control; with αSMA (IPF-2 patient fibroblasts), 1.698 % of DMSO control; in the assay on αSMA (IPF-3 patient fibroblasts), 7.646 % of DMSO control; in the assay with αSMA (IPF-4 patient fibroblasts), 15.9942 % of DMSO control.
With “R(−)-Propylnorapomorphine [R(−)-Propylnorapomorphine•HCl]”, the “Nuclear localization (% of total cells)” value with YAP/TAZ [1] (IPF-1 patient fibroblasts) is 28.35 % of total cells; with YAP/TAZ [1] (IPF-2 patient fibroblasts), 26.71 % of total cells; with YAP/TAZ [1] (IPF-3 patient fibroblasts) it was 42.74 % of total cells; in the assay on YAP/TAZ [1] (IPF-4 patient fibroblasts) it was 29.03 % of total cells. The “αSMA intensity (% of DMSO control)” value in the assay with αSMA (IPF-1 patient fibroblasts) is reported as 5.081 % of DMSO control; in the assay with αSMA (IPF-2 patient fibroblasts), 1.879 % of DMSO control; with αSMA (IPF-3 patient fibroblasts), 5.561 % of DMSO control; in the assay on αSMA (IPF-4 patient fibroblasts) it was 19.96 % of DMSO control.
